± gives the expanded uncertainty stated by the source.
How the values were obtained:
[1] = xn = mol fraction of the nth substance listed; settings: Liquid, Hot wire method
[2] = 294.2 K, Liquid, Hot wire method

A thermal conductivity ([1]; 294.2 K, 10000 kPa, x2 = 0.169) of 0.173 ± 0.005 W/m/K, a thermal conductivity ([1]; 294.2 K, 10000 kPa, x2 = 0.308) of 0.17 ± 0.005 W/m/K and a thermal conductivity ([1]; 294.2 K, 10000 kPa, x2 = 0.422) of 0.171 ± 0.005 W/m/K were found for CCCCn1cc[n+](C)c1.F[B-](F)(F)F [1-butyl-3-methylimidazolium tetrafluoroborate] + O=C=O in this work. For the same compound, the thermal conductivity ([1]; 294.2 K, 20000 kPa, x2 = 0.169) was 0.174 ± 0.005 W/m/K, the thermal conductivity ([1]; 294.2 K, 20000 kPa, x2 = 0.308) was 0.172 ± 0.005 W/m/K and the thermal conductivity ([1]; 294.2 K, 20000 kPa, x2 = 0.422) was 0.171 ± 0.005 W/m/K. The thermal conductivity ([1]; 314.3 K, 10000 kPa, x2 = 0.169) was 0.173 ± 0.005 W/m/K, the thermal conductivity ([1]; 314.3 K, 10000 kPa, x2 = 0.308) was 0.169 ± 0.005 W/m/K and the thermal conductivity ([1]; 314.3 K, 10000 kPa, x2 = 0.422) was 0.17 ± 0.005 W/m/K. The thermal conductivity ([1]; 314.3 K, 20000 kPa, x2 = 0.169) was 0.175 ± 0.005 W/m/K, the thermal conductivity ([1]; 314.3 K, 20000 kPa, x2 = 0.308) was 0.17 ± 0.005 W/m/K and the thermal conductivity ([1]; 314.3 K, 20000 kPa, x2 = 0.422) was 0.17 ± 0.005 W/m/K. It also gave a thermal conductivity ([1]; 334.3 K, 10000 kPa, x2 = 0.169) of 0.173 ± 0.005 W/m/K, a thermal conductivity ([1]; 334.3 K, 10000 kPa, x2 = 0.308) of 0.169 ± 0.005 W/m/K and a thermal conductivity ([1]; 334.3 K, 10000 kPa, x2 = 0.422) of 0.169 ± 0.005 W/m/K. It also gave a thermal conductivity ([1]; 334.3 K, 20000 kPa, x2 = 0.169) of 0.175 ± 0.005 W/m/K, a thermal conductivity ([1]; 334.3 K, 20000 kPa, x2 = 0.308) of 0.17 ± 0.005 W/m/K and a thermal conductivity ([1]; 334.3 K, 20000 kPa, x2 = 0.422) of 0.169 ± 0.005 W/m/K.
A thermal conductivity ([1]; 294.4 K, 10000 kPa, x2 = 0.108) of 0.148 ± 0.005 W/m/K, a thermal conductivity ([1]; 294.4 K, 10000 kPa, x2 = 0.22) of 0.149 ± 0.005 W/m/K and a thermal conductivity ([1]; 294.4 K, 10000 kPa, x2 = 0.328) of 0.15 ± 0.005 W/m/K were found for CCCCn1cc[n+](C)c1.F[P-](F)(F)(F)(F)F [1-butyl-3-methylimidazolium hexafluorophosphate] + O=C=O in this work. The thermal conductivity ([1]; 294.4 K, 10000 kPa, x2 = 0.42) was 0.148 ± 0.005 W/m/K, the thermal conductivity ([1]; 294.4 K, 20000 kPa, x2 = 0.108) was 0.15 ± 0.005 W/m/K and the thermal conductivity ([1]; 294.4 K, 20000 kPa, x2 = 0.22) was 0.151 ± 0.005 W/m/K. It also gave a thermal conductivity ([1]; 294.4 K, 20000 kPa, x2 = 0.328) of 0.152 ± 0.005 W/m/K, a thermal conductivity ([1]; 294.4 K, 20000 kPa, x2 = 0.42) of 0.149 ± 0.005 W/m/K and a thermal conductivity ([1]; 314.5 K, 10000 kPa, x2 = 0.108) of 0.149 ± 0.005 W/m/K. For the same compound, the thermal conductivity ([1]; 314.5 K, 10000 kPa, x2 = 0.22) was 0.149 ± 0.005 W/m/K, the thermal conductivity ([1]; 314.5 K, 10000 kPa, x2 = 0.328) was 0.152 ± 0.005 W/m/K and the thermal conductivity ([1]; 314.5 K, 10000 kPa, x2 = 0.42) was 0.148 ± 0.005 W/m/K. The thermal conductivity ([1]; 314.5 K, 20000 kPa, x2 = 0.108) was 0.151 ± 0.005 W/m/K, the thermal conductivity ([1]; 314.5 K, 20000 kPa, x2 = 0.22) was 0.152 ± 0.005 W/m/K and the thermal conductivity ([1]; 314.5 K, 20000 kPa, x2 = 0.328) was 0.153 ± 0.005 W/m/K. It also gave a thermal conductivity ([1]; 314.5 K, 20000 kPa, x2 = 0.42) of 0.148 ± 0.005 W/m/K, a thermal conductivity ([1]; 334.2 K, 10000 kPa, x2 = 0.108) of 0.148 ± 0.005 W/m/K and a thermal conductivity ([1]; 334.2 K, 10000 kPa, x2 = 0.22) of 0.15 ± 0.005 W/m/K. The thermal conductivity ([1]; 334.2 K, 10000 kPa, x2 = 0.328) was 0.15 ± 0.005 W/m/K, the thermal conductivity ([1]; 334.2 K, 10000 kPa, x2 = 0.42) was 0.148 ± 0.005 W/m/K and the thermal conductivity ([1]; 334.2 K, 20000 kPa, x2 = 0.108) was 0.151 ± 0.005 W/m/K. For the same compound, the thermal conductivity ([1]; 334.2 K, 20000 kPa, x2 = 0.22) was 0.152 ± 0.005 W/m/K, the thermal conductivity ([1]; 334.2 K, 20000 kPa, x2 = 0.328) was 0.151 ± 0.005 W/m/K and the thermal conductivity ([1]; 334.2 K, 20000 kPa, x2 = 0.42) was 0.149 ± 0.005 W/m/K.
A thermal conductivity ([1]; 294.2 K, 10000 kPa, x2 = 0) of 0.194 ± 0.006 W/m/K, a thermal conductivity ([1]; 294.2 K, 10000 kPa, x2 = 0.157) of 0.187 ± 0.006 W/m/K and a thermal conductivity ([1]; 294.2 K, 10000 kPa, x2 = 0.261) of 0.184 ± 0.006 W/m/K were found for Cn1ccnc1 [1-methylimidazole] + O=C=O in this work. The thermal conductivity ([1]; 294.2 K, 10000 kPa, x2 = 0.337) was 0.18 ± 0.005 W/m/K, the thermal conductivity ([1]; 294.2 K, 10000 kPa, x2 = 0.43) was 0.176 ± 0.005 W/m/K and the thermal conductivity ([1]; 294.2 K, 20000 kPa, x2 = 0) was 0.196 ± 0.006 W/m/K. It also gave a thermal conductivity ([1]; 294.2 K, 20000 kPa, x2 = 0.157) of 0.19 ± 0.006 W/m/K, a thermal conductivity ([1]; 294.2 K, 20000 kPa, x2 = 0.261) of 0.187 ± 0.006 W/m/K and a thermal conductivity ([1]; 294.2 K, 20000 kPa, x2 = 0.337) of 0.184 ± 0.006 W/m/K. It also gave a thermal conductivity ([1]; 294.2 K, 20000 kPa, x2 = 0.43) of 0.18 ± 0.005 W/m/K.
A thermal conductivity ([2]; 10000 kPa) of 0.194 ± 0.006 W/m/K and a thermal conductivity ([2]; 20000 kPa) of 0.196 ± 0.006 W/m/K were found for Cn1ccnc1 [1-methylimidazole] in this work.
